In patent US10732172B1, “Methods, systems, and compositions for determining blood clot formation, and uses thereof” (President and Fellows of Harvard College, priority 2015, dated 2020):
“Also recorded” adds a separate entry of the source.

How the values were obtained:
[1] = tested on: C57BL/6J mice; assay: Mouse laser injury model of thrombosis and lung histology after LPS; type: in vivo
Method: In the above described techniques, C57BL/6J mice (about 8-12 weeks old) are used. For example, the mice are purchased from the Jackson Laboratory (Bar Harbor, Me.). Animal care and experimental procedures are performed in accordance with and under approval of the Beth Israel Deaconess Medical Center (“BIDMC”) Institutional Animal Care and Use Committee.
LPS is isolated from Escherichia coli serotype 0111:B4 (e.g., from Sigma-Aldrich, St Louis, Mo.). The anti-platelet antibody CD42b conjugated to Dylight649 is purchased, for example, from Emfret Analytics (Eibelstadt, Germany).
A laser-induced injury model of thrombosis is optionally used to monitor thrombosis formation in cremaster arterioles and venules in response to intraperitoneal injection of LPS (e.g., 10 mg kg^−1) or vehicle (e.g., physiological saline solution). Intravital microscopy of the cremaster microcirculation is performed, with injury to a cremaster arteriolar (e.g., 30-50 μm diameter) vessel wall being induced with a Micropoint Laser System (e.g., from Photonics Instruments, Chicago, Ill.). The Micropoint Laser System is focused through a microscope objective, parfocal with the focal plane and tuned to 440 nm. Data is captured digitally in a single fluorescence channel at 647/670 nm. Data acquisition is initiated both prior to and following a single laser pulse for each injury. Images are captured using a CCD camera (e.g., from Hamamatsu) at frame rates of 1/0.2 s^−1 and 1/0.5 s^−1, for a total of 240 seconds. The microscope system is controlled and images are analyzed using Slidebook (e.g., from Intelligent Imaging Innovations, Denver, Colo.). Anti-platelet antibodies re infused into the mice prior to vessel wall injury.
Histology Lungs are harvested in 4% paraformaldehyde. Following overnight incubation, lungs re transferred to 70% ethanol. Paraffin-embedded lungs are sectioned and stained with Hematoxylin and eosin […] or Masson's Trichome stain (MTS). This work is done by the histology and microscopy core at BIDMC.

[2] = tested on: primary alveolar epithelial cells (AE) and endothelial cells with whole blood; assay: Lung-on-a-chip stimulated with TNF-α or LPS: vascular ICAM-1, P-E, clots, gap junctions; type: cell-based, human
Excerpt: (§1) Specifically, the analysis includes a method to quantitate platelet function in flow chambers and microfluidic devices that has been primarily limited to analyzing platelet adhesion on bare collagen surfaces. To analyze platelet-endothelial dynamics that will act as a robust readout of physiologically-relevant clotting, an automated imaging program creates an image time-series, K(x, y, t), containing a 10-frame panorama in space. Images are acquired at a frame rate of 2 panoramic images per minute, for a total time of 15 minutes. A non-dimensional stochastic index is derived to quantitate platelet endothelial dynamics (“P-E”), which is the interpercentile range of a coefficient of variance of the image time-series: P-E=range(CV(K(x,y,t) (1) A feature of this analytical readout is that instead of an “ensemble averaging,” the method incorporates the cell-surface interactions at the pixel level and quantitates statistical “dispersion” of interactions.
(§2) After plasma treatment of the microfluidic devices, the two chambers are pre-treated with 10% (3-aminopropyl)-trimethoxysilane (APTMES, e.g., from Sigma) in 100% anhydrous alcohol (e.g., from Sigma) for 10-20 minutes. The chambers are flushed sequentially with 70% ethanol in water and 100% ethanol, and then dried at 60-80° C. for two hours. Then, a mixture of rat tail collagen I (100 μg ml^−1 in PBS, from BD Biosciences) and fibronectin (e.g., 30 μg/ml in PBSm, from BD Biosciences) is introduced in both chambers of the microfluidic device. The microfluidic device is incubated at 37° C. for at least 2 hours before flushing with PBS or EGM-2 cell culture media.
(§3) Some of the microfluidic devices are used with collagen coating alone (without cells). In other devices, HUVECs (e.g. from Lonza) are cultured in Endothelial Growth Medium-2 (EGM-2, from Lonza) and used between certain passages. The cells (5-10×10^6 cells/ml) are introduced into the collagen-coated channels and incubated for 20 minutes at 37° C. to promote cell attachment before a second similar HUVEC suspension is, then, introduced. The microfluidic devices are incubated upside down for an additional 20 minutes to seed the cells on the ceiling and walls of the lower chamber.
(§4) The lower chamber is then flushed with EGM-2 and, then, a suspension of primary alveolar epithelial cells (e.g., from ScienCell Research Labs, Carlsbad, Calif.; 5-6×10^6 cells ml^−1) is introduced into the top chamber of the device. After a few hours, the top and bottom chambers are flushed with their respective media, and the microfluidic devices are incubated at 37° C. under 5% CO2 for 3 days (with media being replaced each day once). On day 4, the bottom vascular chamber is set on perfusion of EGM-2 media (e.g., 30 μL hr^−1; 0.5% fetal bovine serum) to provide shear to the HUVEC vessel chamber and a continuous supply of fresh media.
On day 6, the epithelial cell media in the top chamber is aspirated to create the air-liquid interface of the alveoli. Hereon, the cell culture continues for another 6-8 days, after which, in some cases, the top chamber is supplemented with 0, 5, or 100 ng ml^−1 TNF-α in PBS (e.g., from Sigma) overnight or LPS (e.g., 100 ng ml^−1 of E. Coli, from Sigma,) for 2 hours to cause cell activation. The LPS is sonicated in ultrasonic bath for about 20-30 minutes before introducing into the microfluidic device. After stimulation, the top chamber is clamped, the bottom chamber is rinsed with culture media, a reservoir cut from a 3 ml slip-tip syringe (e.g., from BD) is inserted on one end of the lower chamber, and a 1/16-inch male luer connector (e.g., from Qosina Corp) is inserted on the other end of the lower chamber.
When analyzing the formation of fibrin, blood samples re added with 15 μg ml^−1 of fluorescently labeled fibrinogen (e.g., Alexa 488 from Invitrogen). […]

[3] = tested on: platelets and endothelium in LPS-stimulated lung-on-a-chip (PAR-1); assay: Platelet-endothelial dynamics (P-E) in LPS-stimulated lung-on-a-chip with PM2; type: cell-based, human
Excerpt: as §1, §2, §3
as §4, with “On day 4, the bottom vascular chamber is set on perfusion of EGM-2 media (e.g., 30 μL hr^−1; 0.5% fetal bovine serum) to provide shear to the HUVEC vessel chamber and a continuous supply of fresh media.” left out

Compound	lung histology ([1]; LPS injection)	increase in P-E in cremaster artery and vein ([1]; laser injury plus LPS)	platelet-endothelial interactions / thrombosis in cremaster artery or vein ([1]; systemic LPS alone (10 mg kg^-1 intraperitoneal))	platelet-endothelial dynamics (P-E) ([2]; LPS in the absence of AE)	gap junctions ([2]; LPS in the presence of AE)	thrombus formation ([2]; LPS stimulation of endothelium alone)	endothelial inflammation (vascular ICAM-1) ([2]; LPS stimulation over the AE)	platelet-endothelial dynamics (P-E) ([2]; LPS stimulation over the AE)	thrombus formation (platelet aggregates, fibrin) in the lumen ([2]; LPS-stimulated device containing AE)	gap junctions ([2]; blood vessel alone stimulated with LPS)	vascular ICAM-1 ([2]; blood vessel alone stimulated with LPS for 2 hours (no AE))	platelet-endothelial dynamics (P-E) ([3]; PM2 30 μM added to blood alone, AE side stimulated with LPS)	clotting and platelet-endothelial dynamics (P-E) ([3]; PM2 30 μM added to endothelial cell culture medium, AE side stimulated with LPS 100 ng/ml)	P-E and thrombotic activity ([3]; PM2 added to both endothelium and platelets, AE side stimulated with LPS)	overall effect of PM2 in LPS-stimulated lung-on-a-chip ([3]; model of acute lung dysfunction, whole blood perfusion)
lipopolysaccharide [LPS]	lung injury and pulmonary thrombosis; also recorded: causes clotting in the lung	further exacerbated	does not induce any platelet-endothelial interactions; also recorded: does not cause thrombosis in a cremaster artery or vein	near absent	significantly increase	does not cause thrombus formation	inflamed	significantly increases	large platelet aggregates are formed along with significant fibrin in the lumen; also recorded: vascular dysfunction and rapid clotting	not affected	no significant increase in ICAM-1	–	–	–	–
CCCC(=O)Nc1cccc(NC(=O)c2ccccc2Br)c1 [PM2, parmodulin 2]	–	–	–	–	–	–	–	–	–	–	–	reduction of P-E	no significant clotting occurs	completely inhibits the P-E and thrombotic activity	endothelial cytoprotective effect; also recorded: cytoprotective and anti-thrombotic effect
